From US11377425B1, “Small molecule modulators of IL-17” (LEO Pharma A/S, priority 2018, dated 2022)

molecular target: T1, human IL-17AA (Homo sapiens, UniProt Q16552); assay: IL-8 release assay in human epithelial keratinocytes adult (HEKa); assay type: cell-based; settings: HEKa cells, 3 ng/mL HEK-human IL-17AA + 10 ng/mL human TNFalpha; read-out: Rel EC50 IL-8 release assay
T1 construct: host or cells: HEK (human embryonic kidney) cells
T1 sequence (Q16552 24-155): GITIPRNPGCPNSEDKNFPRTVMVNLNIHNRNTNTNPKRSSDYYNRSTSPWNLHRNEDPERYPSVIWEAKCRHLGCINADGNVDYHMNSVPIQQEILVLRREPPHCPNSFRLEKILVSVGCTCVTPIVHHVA
Summary of the method: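 IL-8 release, quantified by HTRF and normalized to controls, reports IL-17 signaling in HEKa cells treated with compound plus final 3 ng/mL IL-17AA (HEK-derived) and 10 ng/mL TNF-alpha for 68-72 h; TNF-alpha-only wells set 100% inhibition. Four-parameter logistic fits (r^2>0.9) give relative IC50 and Emax; PrestoBlue flags cytotoxicity.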

First: Cc1n[nH]c(C)c1-c1ccc(NC(=O)C(NC(=O)c2ccnn2C)C(c2ccccc2)C2CCC2)cc1 (single isomer, unassigned) [Example 299, N-[1-[cyclobutyl(phenyl)methyl]-2-[4-(3,5-dimethyl-1H-pyrazol-4-yl)anilino]-2-oxo-ethyl]-2-methyl-pyrazole-3-carboxamide]
Second: Cc1n[nH]c(C)c1-c1ccc(NC(=O)[C@@H](NC(=O)c2ccnn2C)[C@@H]2CCc3ccccc32)cc1 [Example 76, N-[(1S)-2-[4-(3,5-dimethyl-1H-pyrazol-4-yl)anilino]-1-[(1R)-indan-1-yl]-2-oxo-ethyl]-2-methyl-pyrazole-3-carboxamide]
The EC50 of the first is lower: under 100 nM for the first, 100 to 1000 nM for the second.

Compared with `CC(C)c1nc[nH]c1-c1ccc(NC(=O)[C@@H](NC(=O)c2ccnn2C(C)C)C(C2CC2)C2CC2)cc1` [Example 380, N-[(1S)-1-(dicyclopropylmethyl)-2-[4-(4-isopropyl-1H-imidazol-5-yl)anilino]-2-oxo-ethyl]-2-isopropyl-pyrazole-3-carboxamide], `Cc1n[nH]c(C)c1-c1ccc(NC(=O)C(NC(=O)c2ccnn2C(C)C)C(C2CC2)C2CC2)cc1` (single isomer, unassigned) [Example 33, N-[1-(dicyclopropylmethyl)-2-[4-(3,5-dimethyl-1H-pyrazol-4-yl)anilino]-2 oxo-ethyl]-2-isopropyl-pyrazole-3-carboxamide] is higher in EC50: 100 to 1000 nM for the first, over 1000 nM for the second. The first is the more potent here.

Compared with `Cc1n[nH]c(C)c1-c1ccc(NC(=O)[C@@H](NC(=O)c2ccnn2CCCO)C(C2CCC2)C2CCC2)cc1` [Example 166, N-[(1S)-1-[di(cyclobutyl)methyl]-2-[4-(3,5-dimethyl-1H-pyrazol-4-yl)anilino]-2-oxo-ethyl]-2-(3-hydroxypropyl)pyrazole-3-carboxamide], `Cc1n[nH]c(C)c1-c1ccc(NC(=O)C(NC(=O)c2ccnn2C(C)C)C(C2CCC2)C2CCC2)cc1` (single isomer, unassigned) [Example 40, N-[1-[di(cyclobutyl)methyl]-2-[4-(3,5-dimethyl-1H-pyrazol-4-yl)anilino]-2-oxo-ethyl]-2-isopropyl-pyrazole-3-carboxamide] is higher in EC50: under 100 nM for the first, 100 to 1000 nM for the second.

`CC[C@H](C)[C@H](NC(=O)c1ccnn1C(C)C)C(=O)Nc1ccc(-c2c(C)n[nH]c2C)cc1` [Example 110] and `Cc1n[nH]c(C)c1-c1ccc(NC(=O)[C@@H](NC(=O)c2ccnn2C(C)C)C(C)C2CCC2)cc1` (single isomer, unassigned) [Example 191] fall in the same range of EC50: 100 to 1000 nM for the first, 100 to 1000 nM for the second.

Compared with `Cn1cncc1-c1ccc(NC(=O)[C@H](Cc2cc(Br)ccc2Cl)NC(=O)c2ccnn2C)cc1` [Example 345, N-[(1S)-1-[(5-bromo-2-chloro-phenyl)methyl]-2-[4-(3-methylimidazol-4-yl)anilino]-2-oxo-ethyl]-2-methyl-pyrazole-3-carboxamide], `Cc1n[nH]c(C)c1-c1ccc(NC(=O)[C@@H](NC(=O)c2ccnn2C)[C@H]2CCCc3ccc(Br)cc32)cc1` [Example 6, N-[(1S)-1-[(1S)-7-bromotetralin-1-yl]-2-[4 (3,5-dimethyl-1H-pyrazol-4-yl)anilino]-2-oxo-ethyl]-2-methyl-pyrazole-3-carboxamide] is lower in EC50: 100 to 1000 nM for the first, under 100 nM for the second.

`Cc1n[nH]c(C)c1-c1ccc(NC(=O)C(NC(=O)c2ccnn2C)C(c2ccccc2)C2CCC2)cc1` (single isomer, unassigned) [Example 300, N-[1-[cyclobutyl(phenyl)methyl]-2-[4-(3,5-dimethyl-1H-pyrazol-4-yl)anilino]-2-oxo-ethyl]-2-methyl-pyrazole-3-carboxamide] and `Cc1n[nH]c(C)c1-c1ccc(NC(=O)[C@H](CC2CCC2)NC(=O)c2ccnn2C)cc1` [Example 229, N-[(1S)-1-(cyclobutylmethyl)-2-[4-(3,5-dimethyl-1H-pyrazol-4-yl)anilino]-2-oxo-ethyl]-2-methyl-pyrazole-3-carboxamide] cannot be ordered by EC50: over 1000 nM for the first, over 1000 nM for the second.

First: Cc1n[nH]c(C)c1-c1ccc(NC(=O)C(NC(=O)c2ccnn2CCC(C)O)C2CCCCCCC2)cc1 (single isomer, unassigned) [Example 144, N-[1-cyclooctyl-2-[4-(3,5-dimethyl-1H-pyrazol-4-yl)anilino]-2-oxo-ethyl]-2-(3-hydroxybutyl)pyrazole-3-carboxamide]
Second: Cc1n[nH]c(C)c1-c1ccc(NC(=O)[C@@H](NC(=O)c2cncn2C)C2CCCCC2)cc1 [Example 49, N-[(1S)-1-cyclohexyl-2-[4-(3,5-dimethyl-1H-pyrazol-4-yl)anilino]-2-oxo-ethyl]-3-methyl-imidazole-4-carboxamide]
The EC50 of the first is lower: under 100 nM for the first, over 1000 nM for the second. The first is the more potent here.

Compared with `Cc1n[nH]c(C)c1-c1ccc(NC(=O)C(NC(=O)c2ccnn2C)C2CCC3(CC2)CC3)cc1` (racemic) [Example 21, N-[2-[4-(3,5-dimethyl-1H-pyrazol-4-yl)anilino]-2-oxo-1-spiro[2.5]octan-6-yl-ethyl]-2-methyl-pyrazole-3-carboxamide], `Cc1ncn(C)c1-c1ccc(NC(=O)C(NC(=O)c2ccnn2C)C2CCC(F)(F)CC2)cc1` (single isomer, unassigned) [Example 333, N-[1-(4,4-difluorocyclohexyl)-2-[4-(3,5-dimethylimidazol-4-yl)anilino]-2-oxo-ethyl]-2-methyl-pyrazole-3-carboxamide] is higher in EC50: 100 to 1000 nM for the first, over 1000 nM for the second. The first is the more potent here.

`CCN(CC)C(=O)N[C@H](C(=O)Nc1ccc(-c2c(C)n[nH]c2C)cc1)C1CCCCC1` [Example 462, (2S)-2-cyclohexyl-2-(diethylcarbamoylamino)-N-[4-(3,5-dimethyl-1H-pyrazol-4-yl)phenyl]acetamide] and `Cc1n[nH]c(C)c1-c1ccc(NC(=O)[C@@H](NC(=O)N2CCCC2CCO)C2CCCCC2)cc1` (single isomer, unassigned) [Example 466] cannot be ordered by EC50: over 1000 nM for the first, over 1000 nM for the second.

Compared with `Cc1n[nH]c(C)c1-c1ccc(NC(=O)[C@@H](NC(=O)c2ccnn2CC2CC2)C(C2CC2)C2CC2)cc1` [Example 129, 2-(cyclopropylmethyl)-N-[(1S)-1-(dicyclopropylmethyl)-2-[4-(3,5-dimethyl-1H-pyrazol-4-yl)anilino]-2-oxo-ethyl]pyrazole-3-carboxamide], `Cc1n[nH]c(C)c1-c1ccc(NC(=O)[C@@H](NC(=O)c2ccn[nH]2)C(C2CC2)C2CC2)cc1` [Example 216, N-[(1S)-1-(dicyclopropylmethyl)-2-[4-(3,5-dimethyl-1H-pyrazol-4-yl)anilino]-2-oxo-ethyl]-1H-pyrazole-5-carboxamide] is higher in EC50: under 100 nM for the first, 100 to 1000 nM for the second. The first is the more potent here.

`Cc1n[nH]c(C)c1-c1ccc(NC(=O)[C@@H](NC(=O)c2ccnn2C(C)C)C(C)C2CCC2)cc1` (single isomer, unassigned) [Example 190] and `Cc1n[nH]c(C)c1-c1ccc(NC(=O)[C@@H](NC(=O)c2ccnn2C(C)C)[C@H]2CCOc3cc(F)ccc32)cc1` [Example 288, N-[(1S)-2-[4-(3,5-dimethyl-1H-pyrazol-4-yl)anilino]-1-[(4S)-7-fluorochroman-4-yl]-2-oxo-ethyl]-2-isopropyl-pyrazole-3-carboxamide] cannot be ordered by EC50: under 100 nM for the first, under 100 nM for the second.

`Cc1n[nH]c(C)c1-c1ccc(NC(=O)[C@@H](NC(=O)c2ccnn2C)C(C2CC2)C2CC2)cc1O` [Example 414, N-[(1S)-1-(dicyclopropylmethyl)-2-[4-(3,5-dimethyl-1H-pyrazol-4-yl)-3-hydroxy-anilino]-2-oxo-ethyl]-2-methyl-pyrazole-3-carboxamide] and `Cc1n[nH]c(C)c1-c1ccc(NC(=O)[C@@H](NC(=O)OC2CCC2)C(C2CC2)C2CC2)cc1` [Example 428, Cyclobutyl N-[(1S)-1-(dicyclopropylmethyl)-2-[4-(3,5-dimethyl-1H-pyrazol-4-yl)anilino]-2-oxo-ethyl]carbamate] cannot be ordered by EC50: under 100 nM for the first, under 100 nM for the second.

First: Cc1n[nH]c(C)c1-c1ccc(NC(=O)[C@@H](NC(=O)c2c[nH]c3cnccc23)C2CCCCC2)cc1 [Example 64, N-[(1S)-1-cyclohexyl-2-[4-(3,5-dimethyl-1H-pyrazol-4-yl)anilino]-2-oxo-ethyl]-1H-pyrrolo[2,3-c]pyridine-3-carboxamide]
Second: Cc1n[nH]c(C)c1-c1ccc(NC(=O)[C@@H](NC(=O)N2CCCC2CCCO)C2CCCCC2)cc1 (stereo partly drawn) [Example 468, N-[(1S)-1-cyclohexyl-2-[4-(3,5-dimethyl-1H-pyrazol-4-yl)anilino]-2-oxo-ethyl]-2-(3-hydroxypropyl)-pyrrolidine-1-carboxamide]
The EC50 of the first is lower: 100 to 1000 nM for the first, over 1000 nM for the second.

`Cc1n[nH]c(C(C)O)c1-c1ccc(NC(=O)[C@@H](NC(=O)c2ccnn2C)C(c2ccccc2)c2ccccc2)cc1` (stereo partly drawn) [Example 443, N-[(1S)-1-benzhydryl-2-[4-[5-(1-hydroxyethyl)-3-methyl-1H-pyrazol-4-yl]anilino]-2-oxo-ethyl]-2-methyl-pyrazole-3-carboxamide] and `Cc1n[nH]cc1-c1ccc(NC(=O)[C@@H](NC(=O)c2ccnn2C)C(c2ccccc2)c2ccccc2)cc1O` [Example 421, N-[(1S)-1-Benzhydryl-2-[3-hydroxy-4-(3-methyl-1H-pyrazol-4-yl)anilino]-2-oxo-ethyl]-2-methyl-pyrazole-3-carboxamide] fall in the same range of EC50: 100 to 1000 nM for the first, 100 to 1000 nM for the second.

First: Cn1cncc1-c1ccc(NC(=O)[C@H](CC2CCCCC2)NC(=O)OC(C)(C)C)cc1 [Example 93, tert-butyl N-[(1S)-1-(cyclohexylmethyl)-2-[4-(3-methylimidazol-4-yl)anilino]-2-oxo-ethyl]carbamate]
Second: Cc1nn(COP(=O)(O)O)c(C)c1-c1ccc(NC(=O)[C@@H](NC(=O)c2ccnn2[C@@H](C)CO)C(C2CC2)C2CC2)cc1 [Example 483, Disodium [4-[4-[[(2S)-3,3-dicyclopropyl-2-[[2-[(1S)-2-hydroxy-1-methyl-ethyl]pyrazole-3-carbonyl]amino]propanoyl]amino]phenyl]-3,5-dimethyl-pyrazol-1-yl]methyl phosphate]
The EC50 of the first is higher: over 1000 nM for the first, under 100 nM for the second.
